# Measurements taken from the supplement of paper PMC10307832.
# What was measured:
# Assay in all cases: relative viability (nuclei count vs DMSO), 5 days (fraction); higher = more cells survive
# [1] = compound: C(C(=O)C(=O)O)Br [Bromopyruvate] + Cc1nc(NC(=O)N2CCC[C@H]2C(N)=O)sc1-c1ccnc(C(C)(C)C(F)(F)F)c1 [Alpelisib] (partner 2 µM)
# Method in brief: (§1)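 Relative viability was taken as the ratio of nuclei in treated wells to nuclei in vehicle wells. Lung cancer cell lines in 1536-well plates received compounds by pin tool one day after seeding, either one drug alone or a fixed anchor-drug dose plus five library-drug doses (not always all listed) in √10 steps. Nuclei were counted on 4× images after 5 days of treatment, and values are medians of duplicate plates.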
# [2] = compound: C(C(=O)C(=O)O)Br [Bromopyruvate] + N=C(N)NC(=N)NCCc1ccccc1 [Phenformin] (partner 250 µM)
# Method in brief: as §1
# [3] = compound: C(C(=O)C(=O)O)Br [Bromopyruvate] + CC(=O)Nc1cccc(-n2c(=O)n(C3CC3)c(=O)c3c(Nc4ccc(I)cc4F)n(C)c(=O)c(C)c32)c1 [Trametinib] (partner 0.02 µM)
# Method in brief: as §1
# [4] = compound: CC(O)(CS(=O)(=O)c1ccc(F)cc1)C(=O)Nc1ccc(C#N)c(C(F)(F)F)c1 [Bicalutamide] + O=C(CCCCCCC(=O)Nc1ccccc1)NO [Vorinostat] (partner 1 µM)
# Method in brief: as §1
Cell Line,relative viability ([1]; first compound 1 µM),relative viability ([1]; first compound 3.162 µM),relative viability ([1]; first compound 10 µM),relative viability ([1]; first compound 31.62 µM),relative viability ([1]; first compound 100 µM),relative viability ([2]; first compound 1 µM),relative viability ([2]; first compound 3.162 µM),relative viability ([2]; first compound 10 µM),relative viability ([2]; first compound 31.62 µM),relative viability ([2]; first compound 100 µM),relative viability ([3]; first compound 1 µM),relative viability ([3]; first compound 3.162 µM),relative viability ([3]; first compound 10 µM),relative viability ([3]; first compound 31.62 µM),relative viability ([3]; first compound 100 µM),relative viability ([4]; first compound 0.08 µM),relative viability ([4]; first compound 0.253 µM),relative viability ([4]; first compound 0.8 µM),relative viability ([4]; first compound 2.53 µM)
NCI-H358,0.812,1.08,0.819,0.69,0.721,0.406,0.327,0.351,0.304,0.315,0.145,0.132,0.139,0.128,0.133,0.804,0.604,0.662,0.544
NCI-H441,0.835,1.01,0.714,0.658,0.547,0.852,0.945,0.796,0.743,0.838,0.47,0.529,0.506,0.526,0.458,0.924,0.755,0.778,0.751
NCI-H460,0.432,0.603,0.594,0.374,0.436,0.512,0.556,0.658,0.494,0.508,0.164,0.101,0.132,0.18,0.235,0.763,0.439,0.92,0.779
NCI-H520,0.844,1.08,0.884,0.896,0.875,0.646,0.648,0.623,0.702,0.473,0.653,0.716,0.755,0.637,0.646,0.831,0.728,0.881,0.596
NCI-H596,0.435,0.47,0.551,0.477,0.491,0.694,0.724,0.501,0.695,0.822,0.743,0.84,0.789,0.74,0.845,0.679,0.571,0.66,0.648
NCI-H647,1.12,1.15,1.46,1.48,1.2,0.5,0.637,0.578,0.494,0.494,0.425,0.472,0.665,0.473,0.488,0.474,0.655,0.575,0.435
NCI-H650,1.03,1.2,1.28,1.07,1.02,0.532,0.45,0.414,0.462,0.47,0.971,1.02,0.928,0.955,0.991,0.449,0.518,0.513,0.367
NCI-H661,0.693,0.628,0.601,0.588,0.657,0.294,0.263,0.237,0.287,0.276,0.546,0.588,0.579,0.523,0.603,0.768,0.805,0.771,0.806
NCI-H727,0.683,0.66,0.629,0.547,0.597,0.607,0.778,0.578,0.622,0.527,0.42,0.376,0.461,0.428,0.36,1.38,1.08,1.24,1.19
NCI-H838,1.01,0.983,1.01,0.981,1.13,0.557,0.604,0.656,0.603,0.555,0.521,0.529,0.68,0.539,0.516,0.72,0.707,0.749,0.564
NCI-H1355,0.833,0.961,0.774,0.872,0.903,0.473,0.481,0.442,0.483,0.504,0.415,0.467,0.335,0.452,0.445,0.679,0.596,0.691,0.609
NCI-H1395,1.02,1.46,1.26,1.06,0.991,0.419,0.43,0.424,0.443,0.445,0.982,0.977,1.16,1.02,1.08,0.882,0.666,0.792,0.624
NCI-H1437,0.967,1.06,1.21,0.911,0.989,0.339,0.293,0.398,0.281,0.288,0.552,0.529,0.556,0.506,0.484,0.839,0.832,0.875,0.859
NCI-H1651,0.881,1.06,0.876,0.868,0.912,0.323,0.345,0.429,0.331,0.349,0.817,0.866,0.891,0.825,0.836,0.577,0.514,0.662,0.567
NCI-H1666,1.21,1.07,1.11,1.02,0.774,0.598,0.582,0.606,0.605,0.496,0.865,0.858,0.825,0.852,0.911,0.921,1.05,1.14,0.981
NCI-H1734,0.624,0.728,0.684,0.663,0.704,0.342,0.471,0.513,0.392,0.385,0.743,0.765,0.64,0.717,0.66,0.85,0.701,1.05,0.673
NCI-H1755,0.95,0.925,0.968,0.963,0.97,0.648,0.609,0.599,0.642,0.71,0.827,0.831,0.722,0.768,0.796,0.727,0.748,0.916,0.635
